Converted amounts (≈) assume the structure as drawn. Marks after values point to notes of the source that are not given here.
Columns and labels:
[1] = Practical solubility by direct dissolution in normal saline, HPLC after 0.22-micron filtration; format: physicochemical; details: about 23° C.
Method: The inventors attempted to prepare aqueous baclofen solutions at concentrations of 3 mg/mL, 4 mg/mL, and 5 mg/mL by direct dissolution in 0.9% sodium chloride injection, USP (normal saline). The normal saline was commercially procured by the inventors and was at ambient room temperature (about 23° C.) for use in the testing. Appropriate amounts of authentic baclofen powder were weighed and added to the normal saline and shaken to aid in dissolution. […] Both the 4-mg/mL and especially the 5-mg/mL concentration retained large amounts of undissolved powder. […] The solutions were visibly unacceptable for use as an injection. […] The inventors believe that this the concentration represents the “practical solubility” of baclofen.
As used herein, the “practical solubility” is the concentration of baclofen that can be dissolved using simple practical dissolution steps such as adding the powder to an aqueous solvent and then shaking or stirring the solvent by hand or with a mechanical device. When attempting to prepare solutions having concentrations higher than the practical solubility concentration, it is common to observe residual undissolved matter, precipitation of microparticulates, or both.

[2] = Physical stability evaluation (visual inspection, Tyndall beam, turbidity, particle counting) of stored baclofen solutions; format: physicochemical; details: for Physical Stability (yes/no) / visual inspection at approximately 16 months: heat and sonication; for physical stability at twelve months: 12 months
[3] = cited from earlier work
[4] = aqueous solution, room temperature, neutral pH (pH 6 to 7); calculated (Ahuja, 1985); cited from earlier work
[5] = intrathecal injection at effective CSF concentrations vs oral administration; cited from earlier work
[6] = Stability-indicating HPLC analysis of baclofen concentration / chemical stability; format: physicochemical; details: for Chemical Stability (% Remaining): room temperature
Method: The test solutions in vials and syringes are thoroughly mixed prior to sampling. A 1-mL sample of each test solution from three test syringes and three test vials is collected and chemically analyzed. […] Triplicate HPLC determinations are performed at each time point if needed to determine the maximum stability of baclofen. The contents of the remaining containers are visually inspected at each assay time point and 6-mL samples are collected and fully evaluated for physical stability as indicated under Physical Stability Evaluation above after 1, 3, 7, 14, 21, 30 and 60 days.
HPLC Analysis to Confirm Baclofen Concentration. A stability-indicating HPLC analytical method adapted from published methods was used to determine the concentration of the baclofen samples evaluated in this testing (Sitaram et al., 1997; Gupta et al., 1998; Johnson C E, et al., 1993; Allen L V, et al., 1996. This method was used to document that at the higher concentrations the entire amount of baclofen had dissolved, and the solutions were near the target concentrations. All tested sample solutions were filtered through 0.22-micron filters to remove remaining undissolved drug, if any, prior to analysis. The HPLC analytical method used is cited in Tables 1 and 2. […] Initial baclofen concentrations for the nominally 4, 5, 6, and 8 mg/mL test solutions were within 93 to 104% of the target concentrations.
The liquid chromatograph is a Waters LC Module-1 Plus having a multisolvent pump, variable wavelength UV detector, and autosampler in one unit. The system is also controlled and integrated by a personal computer running chromatography management software.

For `NCC(CC(=O)O)c1ccc(Cl)cc1` (stereo not drawn) [Baclofen, 4-amino-3-(p-chlorophenyl) butyric acid], the solubility at 1 week ([1]; 0.9% sodium chloride injection, USP (normal saline), saline or isotonic, thermodynamic from solid, normal saline, putative 4 mg/mL and 5 mg/mL samples, shaking one week, filtered 0.22-micron, HPLC, read-out: amount of baclofen actually dissolved (practical solubility)) was 3300 to 3500 µg/mL (≈ 15.4 to 16.4 mM), the “complete dissolution by direct dissolution” value ([1]; 4-mg/mL and 5-mg/mL in normal saline, vigorous shaking 60 minutes, then automated shaking for one week) was “failed to result in complete dissolution” and the “Physical Stability (yes/no)” value ([2]; 3 mg/ml, room temperature, test period 24 months) was “yes”. For the same molecule, the “Physical Stability (yes/no)” value ([2]; 3.5 mg/ml, room temperature, test period 24 months) was “yes”, the “time remained in solution” value ([2]; 4 mg/mL, Examples 1 and 2, refrigerated at 4° C. (maximum duration tested)) was “at least 60 days” and the “time remained in solution, clear and free of visible particulates and microparticulate precipitation” value ([2]; 4 mg/mL, Examples 1 and 2, room temperature of 23° C.) was “at least one”. The “time stayed in solution, clear and free of visible particulates and unacceptable microparticulates” value ([2]; 4 mg/mL, heat and sonication (Example 1) or heat and high speed stirring (Example 2), room temperature) was “over 12 months”, the “Physical Stability (yes/no)” value ([2]; 4 mg/ml, room temperature, test period 12 months) was “yes” and the “Physical Stability (yes/no)” value ([2]; 4 mg/ml, room temperature, test period 24 months) was “yes”. The “time after which a precipitate developed” value ([2]; 5 mg/mL, refrigeration) was 14 days, the “Physical Stability (yes/no)” value ([2]; 5 mg/ml, room temperature, test period 12 months) was “yes” and the “time remained clear and free of unacceptable microparticulates” value ([2]; 6 mg/mL, all four methods (Examples 1-4), room temperature or 37° C.) was “at least 60 days”. The “physical stability at twelve months” value ([2]; 6.0 mg/mL, heat and sonication (Example 1), room temperature) was “no visible particulates to the unaided eye, but did contain trace amounts of solid material”, the “visual inspection at approximately 16 months” value ([2]; 6.0 mg/mL, room temperature) was “no change in its condition” and the “Physical Stability (yes/no)” value ([2]; 6 mg/ml, room temperature, test period 12 months, no visible particulates to the unaided eye, trace microparticulates in a few vials) was “yes^b”. For the same molecule, the “time remained in solution” value ([2]; 8.0 mg/mL, heat and sonication (Example 1), room temperature) was “at least 30 days”, the “time remained clear and free of unacceptable microparticulates before trace particulate precipitation” value ([2]; 8 mg/mL, heating and agitation (Examples 1 and 2), room temperature or 37° C.) was 14 days and the “physical stability at 24 months” value ([2]; 3.0, 3.5 and 4.0 mg/mL, heat and sonication (Example 1), room temperature, 24 months, four methods of Example 11) was “physically stable by all four methods”. For the same molecule, the “physical stability at twelve months” value ([2]; 4.0 and 5.0 mg/mL, heat and sonication (Example 1), room temperature) was “remained clear and no particulates were detected”, the “visual inspection at approximately 16 months” value ([2]; 4.0 and 5.0 mg/mL, room temperature) was “no change in the solutions” and the “concentration obtained by dissolving in acid” value ([3]; aqueous 0.1N HCl (Ahuja 1985)) was “greater than 20 mg/ml”. For the same molecule, the “concentration obtained by dissolving in base” value ([3]; aqueous 0.1N NaOH (Ahuja 1985)) was “greater than 20 mg/ml”, the solubility in chloroform ([3]; chloroform) was “insoluble” and the solubility in methanol ([3]; methanol) was “very slightly soluble”. The “upper limit on room temperature aqueous solubility” value ([3]; room temperature, equilibrium reached over weeks or months (Ahuja, 1985)) was 4300 µg/mL, the solubility in water ([3]; water) was “slightly soluble” and the “time before there is 10% decomposition of the dissolved baclofen” value [4] was 10 years. For the same molecule, the “plasma concentrations with intrathecal injection relative to oral administration” value [5] was 100 times less, the “Chemical Stability (% Remaining)” value ([6]; 3 mg/ml, 24 months, calculated based on concentrations measured at six months) was 101.7 ± 1.0^a % Remaining and the “Chemical Stability (% Remaining)” value ([6]; 3.5 mg/ml, 24 months, calculated based on concentrations measured at six months) was 100.0 ± 0.4^a % Remaining. The “loss of drug during storage” value ([6]; 4 mg/mL, Examples 1 and 2, at least one year at 23° C.) was “no loss of drug”, the “Chemical Stability (% Remaining)” value ([6]; 4 mg/ml, 12 months) was 99.9 ± 0.5 % Remaining and the “Chemical Stability (% Remaining)” value ([6]; 4 mg/ml, 24 months, calculated based on concentrations measured at six months) was 99.5 ± 1.2^a % Remaining. For the same molecule, the “Chemical Stability (% Remaining)” value ([6]; 5 mg/ml, 12 months) was 100.6 ± 0.5 % Remaining, the “Chemical Stability (% Remaining)” value ([6]; 6 mg/ml, 12 months) was 102.9 ± 1.0 % Remaining and the “initial baclofen concentration relative to target concentration” value ([6]; nominally 4, 5, 6, and 8 mg/mL test solutions, filtered 0.22-micron, HPLC) was 93 to 104%.

From patent US8357379B2, “High concentration baclofen preparations” (Board of Regents, The University of Texas System, priority 2004, dated 2013)
